A word on the IC50: it is the concentration needed to halve the response being measured. Broadly, the viability, T/C is the result in the treated group divided by that in the control group, in per cent.

Several values for one entry are separate records, joined by “and”; a condition that tells them apart may be missing. Equal entries are not always repeated.

The test system of the experiment is 885512-296-R-J2-PDC complex spheroid growth, % test/control. Briefly: Anticancer human tumor 885512-296-R-J2-PDC patient-derived breast carcinoma cell line growth inhibition [Asc]. As to conditions: for viability, T/C: stronger effect = lower value. The method, boiled down:
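Tumor cells were grown as complex spheroids with human endothelial cells (HUVEC) and human mesenchymal stem cells as stroma. Agents were tested alone and in combination, in half-log steps down from the clinical Cmax, or from 10 microM where Cmax was unknown.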
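Note: spheroids exposed to compounds for seven days.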
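Throughout, for viability, T/C: 100% = DMSO vehicle control wells.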

`C#Cc1c(F)ccc2cc(O)cc(-c3ncc4c(N5CC6CCC(C5)N6)nc(OCC56CCCN5CC(F)C6)nc4c3F)c12` (stereo not given) + CNC(C)C(=O)NC1CN(S(=O)(=O)c2cccc(S(=O)(=O)N3CCC4CCC(C(=O)NC(c5ccccc5)c5ccccc5)N4C(=O)C(NC(=O)C(C)NC)C3)c2)CCC2CCC(C(=O)NC(c3ccccc3)c3ccccc3)N2C1=O: the IC50 is above 10 µM (curve of first compound, second compound 0.01 µM); above 10 µM (curve of first compound, second compound 0.0316 µM); above 10 µM (curve of first compound, second compound 0.1 µM); above 10 µM (curve of first compound, second compound 0.316 µM); above 10 µM (curve of first compound, second compound 1 µM). Moreover, the viability, T/C reads like this: (second compound 0.01 µM, first compound 0.0316 µM) 94.5%; (second compound 0.01 µM, first compound 0.1 µM) 111%; (second compound 0.01 µM, first compound 0.316 µM) 83.5%; (second compound 0.01 µM, first compound 1 µM) 69.7%; (second compound 0.01 µM, first compound 3.16 µM) 89.9%; (second compound 0.01 µM, first compound 10 µM) 94.5%. The viability, T/C is, setting by setting: (second compound 0.0316 µM, first compound 0.0316 µM) 102%; (second compound 0.0316 µM, first compound 0.1 µM) 104%; (second compound 0.0316 µM, first compound 0.316 µM) 96.6%; (second compound 0.0316 µM, first compound 1 µM) 110%; (second compound 0.0316 µM, first compound 3.16 µM) 108%; (second compound 0.0316 µM, first compound 10 µM) 91.5%. The viability, T/C is 102% (second compound 0.1 µM, first compound 0.0316 µM); 97% (second compound 0.1 µM, first compound 0.1 µM); 109% (second compound 0.1 µM, first compound 0.316 µM); 99.4% (second compound 0.1 µM, first compound 1 µM); 108% (second compound 0.1 µM, first compound 3.16 µM); 86.9% (second compound 0.1 µM, first compound 10 µM). In addition, the viability, T/C (second compound 0.316 µM, first compound 0.0316 µM) is 112%; the viability, T/C (second compound 0.316 µM, first compound 0.1 µM) was 109%; the viability, T/C (second compound 0.316 µM, first compound 0.316 µM) is 104%; the viability, T/C (second compound 0.316 µM, first compound 1 µM) is 112%; the viability, T/C (second compound 0.316 µM, first compound 3.16 µM) was 107%; the viability, T/C (second compound 0.316 µM, first compound 10 µM) was 86.7%. Further, the viability, T/C reads like this: (second compound 1 µM, first compound 0.0316 µM) 107%; (second compound 1 µM, first compound 0.1 µM) 108%; (second compound 1 µM, first compound 0.316 µM) 116%; (second compound 1 µM, first compound 1 µM) 105%; (second compound 1 µM, first compound 3.16 µM) 105%; (second compound 1 µM, first compound 10 µM) 94.6%.

For `CCN1C(C(=O)NC23CCC(C(=O)O)(CC2)CC3)C(c2cccc(Cl)c2F)C2(C(=O)Nc3cc(Cl)ccc32)C12CCCCC2` (stereo not given), the viability, T/C is, setting by setting: (compound 0.00949 µM) 94.5% and 78.9%; (compound 0.0949 µM) 95.6% [middle of 15 runs]; (compound 0.949 µM) 71.9% [middle of 15 runs]; (compound 3 µM) 46.6% [middle of 15 runs]. The concentration for half-maximal inhibition (IC50) (curve of compound) was 2.83 µM and > 3 µM.
